According to the supplement of paper PMC10307832:

What was measured:
Assay in all cases: relative viability (nuclei count vs DMSO), 5 days (fraction); higher = more cells survive
[1] = compound: C[C@@H](N)c1ccc(C(=O)Nc2ccnc3[nH]ccc23)cc1 + Cc1cc(Nc2cc(N3CCN(C)CC3)nc(Sc3ccc(NC(=O)C4CC4)cc3)n2)n[nH]1 [Tozasertib] (partner 0.1 µM)
Method in brief: (§1)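 For relative viability, nuclei counts in treated wells were divided by those in vehicle wells. Lung cancer cell lines had been pin-tool dosed in 1536-well plates the day after seeding and cultured for 5 days, then fixed and stained in one step (final 0.05% Triton X-100, 1% formaldehyde, 1 ug/ml Hoechst) and imaged at 4×. Doses were one drug alone or a fixed anchor-drug dose plus five library-drug doses (not always all listed) in √10 steps, and values are duplicate-plate medians.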

[2] = compound: O[C@H]1CC[C@H](Nc2ncc3nc(Nc4c(F)cc(F)cc4F)n([C@H]4CCOC4)c3n2)CC1 [Tanzisertib] + CC1(C)CCC(c2ccc(Cl)cc2)=C(CN2CCN(c3ccc(C(=O)NS(=O)(=O)c4ccc(N[C@H](CCN5CCOCC5)CSc5ccccc5)c(S(=O)(=O)C(F)(F)F)c4)cc3)CC2)C1 [Navitoclax] (partner 0.5 µM)
Method in brief: as §1

[3] = compound: C1CNCCC1C2=CC(=NN2)C3=CC=NC=C3 + Cc1nc(NC(=O)N2CCC[C@H]2C(N)=O)sc1-c1ccnc(C(C)(C)C(F)(F)F)c1 [Alpelisib] (partner 2 µM)
Method in brief: as §1

[4] = compound: O[C@H]1CC[C@H](Nc2ncc3nc(Nc4c(F)cc(F)cc4F)n([C@H]4CCOC4)c3n2)CC1 [Tanzisertib] + NC(=O)Nc1cc(-c2cccc(F)c2)sc1C(=O)N[C@H]1CCCNC1 [AZD7762] (partner 0.2 µM)
Method in brief: as §1

Cell Line | relative viability ([1]; first compound 0.04 µM) | relative viability ([1]; first compound 0.1265 µM) | relative viability ([1]; first compound 0.4 µM) | relative viability ([1]; first compound 4 µM) | relative viability ([2]; first compound 0.08 µM) | relative viability ([2]; first compound 0.253 µM) | relative viability ([2]; first compound 0.8 µM) | relative viability ([2]; first compound 2.53 µM) | relative viability ([2]; first compound 8 µM) | relative viability ([3]; first compound 0.08 µM) | relative viability ([3]; first compound 0.8 µM) | relative viability ([3]; first compound 2.53 µM) | relative viability ([3]; first compound 8 µM) | relative viability ([4]; first compound 0.08 µM) | relative viability ([4]; first compound 0.253 µM) | relative viability ([4]; first compound 0.8 µM) | relative viability ([4]; first compound 2.53 µM) | relative viability ([4]; first compound 8 µM) | relative viability ([1]; first compound 1.265 µM)
NCI-H1793 | 0.447 | 0.32 | 0.367 | 0.378 | 0.432 | 0.424 | 0.445 | 0.39 | 0.382 | 0.659 | 0.569 | 0.783 | 0.739 | 0.643 | 0.574 | 0.462 | 0.406 | 0.397 | 
LU99A |  | 0.278 | 0.234 | 0.227 | 0.713 | 0.847 | 0.879 | 0.743 | 0.781 | 0.545 | 0.579 | 0.65 | 0.566 | 0.299 | 0.42 | 0.431 | 0.322 | 0.407 | 0.227
PC-14 | 0.518 | 0.577 | 0.543 | 0.429 | 1.03 | 1.05 | 0.934 | 1.02 | 0.736 | 0.938 | 0.913 | 1.1 | 0.923 | 0.476 | 0.531 | 0.367 | 0.386 | 0.213 | 0.385
NCI-H2085 | 0.865 | 0.772 | 0.694 | 0.722 | 1.11 | 1.05 | 1.2 | 1.09 | 1.14 | 0.926 | 0.514 | 1.02 | 0.98 |  | 0.974 | 1.02 | 0.981 | 1.02 | 
NCI-H2170 | 0.719 | 0.663 | 0.784 | 0.636 | 0.702 | 0.496 | 0.656 | 0.57 | 0.582 | 0.734 | 0.761 | 0.81 | 0.684 | 1.09 | 0.897 | 0.791 | 1.02 | 0.676 | 0.699
HCC-78 | 0.51 | 0.405 | 0.733 | 0.633 | 0.705 | 0.741 | 0.766 | 0.801 | 0.673 | 0.344 |  | 0.37 | 0.411 | 0.694 | 0.723 | 0.634 | 0.474 | 0.5 | 0.415
NCI-H1395 | 0.811 | 0.749 | 0.739 | 0.656 | 1.05 | 1.27 | 1.43 | 1.1 | 1.01 | 0.977 | 0.77 | 1.46 | 0.975 | 0.439 | 0.399 | 0.382 | 0.394 | 0.425 | 0.805
NCI-H2126 | 0.92 | 0.885 | 0.877 | 0.854 | 0.914 | 0.854 | 0.877 | 0.815 | 0.893 | 0.761 | 0.634 | 0.777 | 0.752 | 1.07 | 1.03 | 1.04 | 1.05 | 1.05 | 0.921
H3255 | 0.568 | 0.632 | 0.779 | 0.613 | 0.618 | 0.587 | 0.428 | 0.434 | 0.12 | 0.674 | 0.646 | 0.858 | 0.734 | 0.95 | 0.932 | 1 | 0.791 | 0.554 | 0.824
HCC-15 | 0.519 | 0.332 | 0.507 | 0.657 | 0.754 | 0.699 | 0.702 | 0.671 | 0.694 | 0.856 | 0.856 | 0.898 | 0.839 | 1.23 | 1.25 | 1.22 | 1.13 | 1 | 
HCC-44 | 0.793 | 0.809 | 1.15 | 0.789 | 1.18 | 0.985 | 0.992 | 0.916 | 0.973 | 0.815 | 0.7 | 0.794 | 0.794 | 0.987 | 1.05 | 0.997 | 1.01 | 1.15 | 1.2
EMC-BAC-2 | 0.252 | 0.276 | 0.3 | 0.24 | 1.23 | 1.16 | 1.18 | 1.12 | 1.07 | 0.755 | 0.659 | 0.72 | 0.758 | 1.16 | 1.15 | 1.04 | 0.947 | 1.04 | 0.271
LK-2 | 0.165 |  | 0.17 | 0.171 | 0.871 | 0.847 | 0.87 | 0.884 | 0.9 | 1.09 | 1.11 | 1.21 | 1.24 | 0.41 | 0.455 | 0.421 | 0.32 | 0.346 | 
NCI-H2405 | 0.858 | 0.832 | 0.759 | 0.35 | 0.968 | 0.837 | 1.02 | 1.03 | 0.688 | 0.792 | 0.62 | 0.875 | 0.686 | 0.767 | 0.794 | 0.757 | 0.795 | 0.617 | 0.507
NCI-H2087 | 0.324 | 0.235 | 0.274 | 0.181 | 1.04 | 0.961 | 0.957 | 1.04 | 0.95 | 0.862 | 1.07 | 1.07 | 0.985 | 1.48 | 1.07 | 1.33 | 1.41 | 1.26 | 
NCI-H460 | 0.606 | 0.405 | 0.571 | 0.771 | 1.32 | 1.21 | 0.986 | 1.2 | 1.24 | 0.381 | 0.343 | 0.593 | 0.62 | 0.661 | 0.627 | 0.591 | 0.63 | 0.628 | 0.392
LOU-NH91 | 0.556 | 0.609 | 0.607 | 0.417 | 0.81 | 0.664 | 0.747 | 0.675 | 0.497 | 0.698 | 0.677 | 0.811 | 0.749 | 0.781 | 0.782 | 0.806 | 0.746 | 0.676 | 0.504
